Source: patent US20050026949A1, “Methods of therapeutic treatment using amounts of retinoids without regard to body weight” (Allergan, Inc., priority 2003, published 2005)

What was measured:
Type in all cases: in vivo, human
[1] = test system: patients treated for psoriasis; test: Phase 3 studies of orally administered tazarotene for psoriasis: adverse events (Table 1); conditions: Taz 4.5 mg
Method: A series of Phase 3 studies are conducted on orally administered tazarotene for the treatment of psoriasis. Adverse events (side effects) are monitored. In addition, published data for acitretin's side effects are also considered.

patients = test: Two placebo-controlled 24-week safety studies of oral tazarotene plus dose-response evaluations (Example 3)
Method: Two multicenter, double-blind, randomized, placebo-controlled 24-week studies of identical design are conducted to evaluate the safety of oral tazarotene. In addition, 16- to 24-week dose-response evaluations are performed.
In the two safety trials, the incidence of adverse side effects with a 4.5 mg dose administered orally once daily is compared to the incidence of the same side effects with a placebo. […] The majority of these were mild in severity and typical of adverse effects associated with oral retinoids.

[2] = PK and PD interaction studies of oral tazarotene with oral contraceptives (Example 8)
Method: It is the objective of this study to determine if there are pharmacokinetic (PK) and pharmacodynamic (PD) interactions between tazarotene and commonly prescribed oral contraceptives (OCs) when coadministered together.
Three separate clinical studies are conducted to evaluate the PK and PD interactions of oral tazarotene and OCs in healthy volunteers. Two studies evaluate daily doses of norethindrone (NE)/ethinyl estradiol (EE) with daily doses of tazarotene 1.1 mg (N=27) and 6 mg (N=29). The third study assesses the daily doses of norgestimate (NGM)/EE with daily doses of tazarotene 6 mg (N=26). OCs are administered for three consecutive menstrual cycles. Daily doses of tazarotene are started during the 2nd cycle and continued through the end of the studies. PK parameters for EE, NE, and NGM (AUC0-24 and Cmax) are determined before tazarotene dosing and after tazarotene dosing on day 6 of the 2nd and 3rd cycles. Serum concentrations of luteinizing hormone (LH) and follicle-stimulating hormone (FSH)-markers of contraceptive efficacy are also evaluated before tazarotene dosing and after tazarotene dosing on days 2, 4, and 6 of the 2nd and 3rd cycles. Serum progesterone levels are assessed on days 18 and 20 of the 2nd and 3rd cycles.
The plasma of each subject is tested for Cmax and AUC of tazarotenic acid, the primary active retinoid agent in systemic circulation as the result of the oral administration of tazarotene.

[3] = test system: patient with severe psoriasis; test: Patient with severe psoriasis taking Ortho-Novum treated with tazarotene (Example 9)
Description: The patient presents symptoms of severe psoriasis. The symptoms include lesions approximately 4 to 10 centimeters across appearing as raised patches of wine red skin many of which are covered in silvery white scales. The lesions are mostly dry and rough, and quite often noticeably warm to the touch. The lesions are present on the elbows, knees, scalp, and groin area. The patient experiences intense burning and itching associated with the lesions.
The patient is currently taking Ortho-Novum® for contraception.
Tazarotene at a dose of 6 mg per day is prescribed.

[4] = test system: patients with moderate to very severe plaque psoriasis; test: Open-label extension study of oral tazarotene (Example 4); conditions: 4.5 mg once daily, 12-week extension treatment period, both groups
[5] = Study 3, treated with Tazarotene for 3 months (N = 220)
[6] = Study 3, treated with Tazarotene for 6 months (N = 92)
[7] = combined data from Studies 1 and 2 (N = 348)
[8] = 4.5 mg orally once daily, placebo 0%
[9] = 4.5 mg orally once daily, placebo 1%
[10] = 4.5 mg orally once daily, placebo 2%
[11] = 4.5 mg orally once daily, placebo 3%
[12] = 4.5 mg orally once daily, placebo 8%
[13] = 4.5 mg orally once daily, placebo <1%

CCOC(=O)c1ccc(C#Cc2ccc3c(c2)C(C)(C)CCS3)nc1 [tazarotene]
Alopecia [1, 5]: 1 (0.5) NUMBER OF (%) OF PATIENTS
Arthralgia [1, 5]: 28 (12.7) NUMBER OF (%) OF PATIENTS
Atrophy of skin [1, 5]: 0 (0.0) NUMBER OF (%) OF PATIENTS
Back pain [1, 5]: 7 (3.2) NUMBER OF (%) OF PATIENTS
Cheilitis [1, 5]: 149 (67.7) NUMBER OF (%) OF PATIENTS
Dry Skin [1, 5]: 47 (21.4) NUMBER OF (%) OF PATIENTS
Dry mouth/Oral dryness [1, 5]: 11 (5.0) NUMBER OF (%) OF PATIENTS
Epistaxis [1, 5]: 1 (0.5) NUMBER OF (%) OF PATIENTS
Erythematous rash/Erythema [1, 5]: 0 (0.0) NUMBER OF (%) OF PATIENTS
Hyperesthesia [1, 5]: 0 (0.0) NUMBER OF (%) OF PATIENTS
Nail Disorder [1, 5]: 1 (0.5) NUMBER OF (%) OF PATIENTS
Paresthesia [1, 5]: 3 (1.4) NUMBER OF (%) OF PATIENTS
Paronychia/Nail disorder [1, 5]: 1 (0.5) NUMBER OF (%) OF PATIENTS
Pruritus [1, 5]: 11 (5.0) NUMBER OF (%) OF PATIENTS
Rhinitis [1, 5]: 0 (0.0) NUMBER OF (%) OF PATIENTS
Rigors/Chills [1, 5]: 1 (0.5) NUMBER OF (%) OF PATIENTS
Skin peeling/Desquamation [1, 5]: 3 (1.4) NUMBER OF (%) OF PATIENTS
Sticky skin/Skin disorder [1, 5]: 0 (0.0) NUMBER OF (%) OF PATIENTS
Xerophthalmia/Eye disorder [1, 5]: 3 (1.4) NUMBER OF (%) OF PATIENTS
Alopecia [1, 6]: 5 (5.4) NUMBER OF (%) OF PATIENTS
Arthralgia [1, 6]: 30 (32.6) NUMBER OF (%) OF PATIENTS
Atrophy of skin [1, 6]: 0 (0.0) NUMBER OF (%) OF PATIENTS
Back pain [1, 6]: 10 (10.9) NUMBER OF (%) OF PATIENTS
Cheilitis [1, 6]: 65 (70.7) NUMBER OF (%) OF PATIENTS
Dry Skin [1, 6]: 24 (26.1) NUMBER OF (%) OF PATIENTS
Dry mouth/Oral dryness [1, 6]: 2 (2.2) NUMBER OF (%) OF PATIENTS
Epistaxis [1, 6]: 0 (0.0) NUMBER OF (%) OF PATIENTS
Erythematous rash/Erythema [1, 6]: 0 (0.0) NUMBER OF (%) OF PATIENTS
Hyperesthesia [1, 6]: 0 (0.0) NUMBER OF (%) OF PATIENTS
Nail Disorder [1, 6]: 1 (1.1) NUMBER OF (%) OF PATIENTS
Paresthesia [1, 6]: 1 (1.1) NUMBER OF (%) OF PATIENTS
Paronychia/Nail disorder [1, 6]: 1 (1.1) NUMBER OF (%) OF PATIENTS
Pruritus [1, 6]: 3 (3.3) NUMBER OF (%) OF PATIENTS
Rhinitis [1, 6]: 0 (0.0) NUMBER OF (%) OF PATIENTS
Rigors/Chills [1, 6]: 1 (1.1) NUMBER OF (%) OF PATIENTS
Skin peeling/Desquamation [1, 6]: 1 (1.1) NUMBER OF (%) OF PATIENTS
Sticky skin/Skin disorder [1, 6]: 0 (0.0) NUMBER OF (%) OF PATIENTS
Xerophthalmia/Eye disorder [1, 6]: 1 (1.1) NUMBER OF (%) OF PATIENTS
Alopecia [1, 7]: 1 (0.3) NUMBER OF (%) OF PATIENTS
Arthralgia [1, 7]: 60 (17.2) NUMBER OF (%) OF PATIENTS
Atrophy of skin [1, 7]: 0 (0.0) NUMBER OF (%) OF PATIENTS
Back pain [1, 7]: 16 (4.6) NUMBER OF (%) OF PATIENTS
Cheilitis [1, 7]: 228 (65.5) NUMBER OF (%) OF PATIENTS
Dry Skin [1, 7]: 82 (23.6) NUMBER OF (%) OF PATIENTS
Dry mouth/Oral dryness [1, 7]: 11 (3.2) NUMBER OF (%) OF PATIENTS
Epistaxis [1, 7]: 2 (0.6) NUMBER OF (%) OF PATIENTS
Erythematous rash/Erythema [1, 7]: 2 (0.6) NUMBER OF (%) OF PATIENTS
Hyperesthesia [1, 7]: 0 (0.0) NUMBER OF (%) OF PATIENTS
Nail Disorder [1, 7]: 2 (0.6) NUMBER OF (%) OF PATIENTS
Paresthesia [1, 7]: 7 (2.0) NUMBER OF (%) OF PATIENTS
Paronychia/Nail disorder [1, 7]: 2 (0.6) NUMBER OF (%) OF PATIENTS
Pruritus [1, 7]: 21 (6.0) NUMBER OF (%) OF PATIENTS
Rhinitis [1, 7]: 8 (2.3) NUMBER OF (%) OF PATIENTS
Rigors/Chills [1, 7]: 9 (2.6) NUMBER OF (%) OF PATIENTS
Skin peeling/Desquamation [1, 7]: 3 (0.9) NUMBER OF (%) OF PATIENTS
Sticky skin/Skin disorder [1, 7]: 1 (0.3) NUMBER OF (%) OF PATIENTS
Xerophthalmia/Eye disorder [1, 7]: 8 (2.3) NUMBER OF (%) OF PATIENTS
incidence of patients discontinuing due to adverse effects (patients; 4.5 mg (n=348)): 3%
incidence of ocular, auditory, or thyroid problems (patients; 4.5 mg orally once daily vs placebo): no statistically significant between-group difference
incidence of agitation (patients; [8]): < 1%
incidence of dermatitis (patients; [8]): 1%
incidence of hyperglycemia (patients; [8]): 2%
incidence of foot pain (patients; [9]): 3%
incidence of joint disorder (patients; [9]): 4%
incidence of nasal dryness (patients; [9]): 4%
incidence of rash (patients; [9]): 3%
incidence of altered hormone levels (elevated TSH and T4, decreased T4, abnormal thyroid function test) (patients; [10]): 0%
incidence of depression (patients; [10]): 1%
incidence of back pain (patients; [11]): 7%
incidence of emotional lability (patients; [11]): 3%
incidence of arthralgia (patients; [12]): 17%
incidence of myalgia (patients; [12]): 14%
incidence of headache (patients; 4.5 mg orally once daily, placebo 12%): 19%
incidence of dry skin (patients; 4.5 mg orally once daily, placebo 15%): 24%
incidence of cheilitis (patients; 4.5 mg orally once daily, placebo 17%): 66%
incidence of anxiety (patients; [13]): 1%
incidence of psychosis (patients; [13]): 0%
incidence of psychotic depression (patients; [13]): 0%
incidence of patients discontinuing due to adverse effects (patients; 6.3 mg (n=16)): 13%
incidence of patients discontinuing due to adverse effects (patients; 0.4 to 1.1 mg oral tazarotene (n=105)): approximately 2%
incidence of patients discontinuing due to adverse effects (patients; 2.1 to 2.8 mg oral tazarotene (n=21)): 10%
incidence of patients discontinuing due to adverse effects (patients; w.2 mg (n=14)): 0%
effect on PK or efficacy of NE/EE and NGM/EE oral contraceptives ([2]; orally, up to 6 mg once daily): does not affect
90% confidence intervals of AUC0-24 and Cmax for EE, NE, and NGM ([2]; tazarotene 1.1 mg or 6 mg daily with NE/EE, 6 mg daily with NGM/EE): within the 80-125% boundary
90% confidence intervals of FSH and LH ([2]; tazarotene coadministered with oral contraceptives): generally within the 80-125% boundary
90% confidence intervals of progesterone concentrations ([2]; tazarotene coadministered with oral contraceptives, days 18 and 20 of 2nd and 3rd cycles): within the 80-125% boundary
serum FSH and LH levels ([2]; tazarotene coadministered with oral contraceptives, follicular phase): remain within the normal ranges
psoriasis symptoms and lesions ([3]; 6 mg per day, after 30 days): symptoms of itching and burning are relieved and the severity of their lesions are substantially lessened
serum FSH and LH levels ([3]; tazarotene 6 mg per day with Ortho-Novum): remain within the normal ranges
incidence of asthenia [4]: 6%
incidence of back pain [4]: 11%
incidence of headache [4]: 11%
incidence of infection [4]: 10%
incidence of myalgia [4]: 15%
